Assay results as given in patent publication US12290519B2, “Anti-inflammatory coupling compound drug, and preparation method therefor and use thereof” (COVAL BIOPHARMA (SHANGHAI) CO., LTD., priority 2021, dated 2025).

Experiment: Hydrolysis rate / drug release rate of the compounds (release of JAK inhibitor, HPLC)
Type: physicochemical
Conditions: % release of JAK inhibitor from sample in acetonitrile/water=7/3 (v/v), 37° C. constant temperature shaker, sampled days 1-4, HPLC
Experimental: Analysis Method for Hydrolysis Rate of Compounds of the Present Invention
1. Preparation of Standard Working Curve Solution
(§1) About 10 mg of JAK inhibitors (tofacitinib and baricitinib) reference substances were weighed into a 25 mL volumetric flask, acetonitrile/water=7/3 (v/v) was added to dissolve and dilute to the marked volume, serving as a stock solution. The stock solution was diluted with a suitable dilution factor to obtain linear solutions of each concentration: 0.0002 mg/mL, 0.0004 mg/mL, 0.004 mg/mL, 0.04 mg/mL, and 0.08 mg/mL.
as §1, with “(Oclacitinib, Ruxolitinib, Delgocitinib,” for “(tofacitinib”, “Upadacitinib)” for “baricitinib)”
2. Preparation of Sample Solution
About 5 mg of the sample (the compound prepared in the present invention) was weighed into a 20 mL volumetric flask, acetonitrile/water=7/3 (v/v) was added to dissolve and dilute to the marked volume, serving as a stock solution. An appropriate amount of HPLC was loaded as the 0-day sample. The test solution was sealed with a sealing film and placed in a 37° C. constant temperature shaker. The test samples were taken at the same time on days 1, 2, 3, and 4 respectively. the release amount of JAK inhibitor in the sample was calculated according to the sample weight and JAK inhibitor standard curve.
3. Calculation Formula % Release of JAK Inhibitor r=100%×((AJAK Inhibitor−b)/a)/((W/20×M2/M1) wherein • AJAK inhibitor is the peak area of JAK inhibitor in the sample chromatogram • b is the intercept of the standard curve M1 is the molecular weight of the sample a is the slope of the standard curve
W is the sample weight (mg) M2 is the molecular weight of the JAK inhibitor
4. Chromatographic Conditions

Compound	Release Rate (%/day)
CC(C(=O)OCn1ccc2c(N(C)[C@H]3CN(C(=O)CC#N)CC[C@H]3C)ncnc21)c1ccc(CC2CCCC2=O)cc1 (stereo partly drawn) [Ex. 53, (4-(((3R, 4R)-1-(2-cyanoacetyl)-4-methylpiperidin-3-yl) (methyl)amino)-7H-pyrrolo [2,3-d]pyrimidin-7-yl) methyl 2-(4-((2-oxocyclopentyl)methyl)phenyl) propanoate]	0.06
CCC(C(=O)OCn1ccc2c(N(C)[C@H]3CN(C(=O)CC#N)CC[C@H]3C)ncnc21)c1ccc(N2Cc3ccccc3C2=O)cc1 (stereo partly drawn) [Ex. 65, (4-(((3R, 4R)-1-(2-cyanoacetyl)-4-methylpiperidin-3-yl) (methyl)amino)-7H-pyrrolo [2,3-d]pyrimidin-7-yl) methyl 2-(4-(1-oxoisoindol-2-yl)) phenyl) butanoate]	0.01
CC(C(=O)n1ccc2c(-c3cnn([C@H](CC#N)C4CCCC4)c3)ncnc21)c1cccc(Oc2ccccc2)c1 (stereo partly drawn) [Ex. 54, (3R)-3-cyclopentyl-3-(4-(7-(2-(3-phenoxyphenyl)propanoyl)-7H-pyrrolo [2,3-d]pyrimidin-4-yl)-1H-pyrazol-1-yl) propanenitrile]	4.93
CCS(=O)(=O)N1CC(CC#N)(n2cc(-c3ncnc4c3ccn4COC3=C(C(=O)Nc4ncc(C)s4)N(C)S(=O)(=O)c4ccccc43)cn2)C1 [Ex. 122, 4-((4-(1-(3-(Cyanomethyl)-1-(ethylsulfonyl)azetidin-3-yl)-1H-pyrazol-4-yl)-7H-pyrrolo [2,3-d]pyrimidin-7-yl)methoxy)-2-methyl-N-(5-methylthiazol-2-yl)-2H-benzo [e] [1, 2] thiazine-3-carboxamide 1,1-dioxide]	15.32
CC(C)(C)OC(=O)N[C@H](C(=O)n1ccc2c(-c3cnn([C@H](CC#N)C4CCCC4)c3)ncnc21)c1ccccc1 [Ex. 80, Tert-butyl ((S)-2-(4-(1-((R)-2-cyano-1-cyclopentylethyl)-1H-pyrazol-4-yl)-7H-pyrrolo [2,3-d]pyrimidin-7-yl)-2-oxo-1-phenylethyl) carbamate]	27.29
CCS(=O)(=O)N1CC(CC#N)(n2cc(-c3ncnc4c3ccn4C(=O)C(C)c3ccc(-c4ccccc4)c(F)c3)cn2)C1 (stereo not drawn) [Ex. 20, 2-(1-(ethylsulfonyl)-3-(4-(7-(2-(2-fluoro-[1, 1′-biphenyl]-4-yl)propanoyl)-7H-pyrrolo [2,3-d]pyrimidin-4-yl)-1H-pyrazol-1-yl)azetidin-3-yl) acetonitrile]	5.06
CC[C@@H]1CN(C(=O)NCC(F)(F)F)C[C@@H]1c1cnc2cnc3c(ccn3C(=O)c3ccccc3Nc3cccc(Cl)c3C)n12 [Ex. 130, (3R, 4S)-3-(3-(2-((3-chloro-2-methylphenyl)amino)benzoyl)-3H-imidazo [1,2-a]pyrrolo [2,3-e]pyrazin-8-yl)-4-ethyl-N-(2,2,2-trifluoroethyl) pyrrolidine-1-carboxamide]	11.67
CC(=O)Nc1ccc(CC(=O)n2ccc3c(-c4cnn([C@H](CC#N)C5CCCC5)c4)ncnc32)cc1 [Ex. 78, (R)—N-(4-(2-(4-(1-(2-cyano-1-cyclopentylethyl)-1H-pyrazol-4-yl)-7H-pyrrolo [2,3-d]pyrimidin-7-yl)-2-oxoethyl)phenyl) acetamide]	6.27
CCC(C(=O)n1ccc2c(N3CC[C@]4(C3)[C@@H](C)CN4C(=O)CC#N)ncnc21)c1ccc(N2Cc3ccccc3C2=O)cc1 (stereo partly drawn) [Ex. 143, 3-((3S, 4R)-3-methyl-6-(7-(2-(4-(1-oxoisoindolin-2-yl)phenyl)butanoyl)-7H-pyrrolo [2,3-d]pyrimidin-4-yl)-1,6-diazaspiro [3.4]octan-1-yl)-3-oxopropanenitrile]	4.29
CCS(=O)(=O)N1CC(CC#N)(n2cc(-c3ncnc4c3ccn4COC(=O)c3ccccc3Nc3cccc(C)c3C)cn2)C1 [Ex. 83, Methyl (4-(1-(3-(cyanomethyl)-1-(ethylsulfonyl)azetidin-3-yl)-1H-pyrazol-4-yl)-7H-pyrrolo [2,3-d]pyrimidin-7-yl) 2-((2,3-dimethylphenyl)amino) benzoate]	0.003
CNS(=O)(=O)C[C@H]1CC[C@H](N(C)c2ncnc3c2ccn3C(=O)Cc2c(C)n(C(=O)c3ccc(Cl)cc3)c3ccc(OC)cc23)CC1 [Ex. 42, 1-((Trans)-4-((7-(2-(1-(4-chlorobenzoyl)-5-methoxy-2-methyl-1H-indol-3-yl)acetyl)-7H-pyrrolo [2,3-d]pyrimidin-4-yl) (methyl)amino)cyclohexyl)-N-methylmethanesulfonamide]	22.18
CC(C)Cc1ccc([C@H](C)C(=O)OCn2ccc3c(N(C)[C@H]4CN(C(=O)CC#N)CC[C@H]4C)ncnc32)cc1 [Ex. 3]	0.05
CCS(=O)(=O)N1CC(CC#N)(n2cc(-c3ncnc4c3ccn4COC(=O)Cc3ccc(NC(C)=O)cc3)cn2)C1 [Ex. 84, Methyl (4-(1-(3-(cyanomethyl)-1-(ethylsulfonyl)azetidin-3-yl)-1H-pyrazol-4-yl)-7H-pyrrolo [2,3-d]pyrimidin-7-yl) 2-(4-acetamidophenyl) acetate]	0.06
CNS(=O)(=O)C[C@H]1CC[C@H](N(C)c2ncnc3c2ccn3COC(=O)[C@@H](NC(=O)OC(C)(C)C)c2ccccc2)CC1 [Ex. 91, (4-(Methyl ((trans)-4-((N-methylsulfamoyl)methyl)cyclohexyl)amino)-7H-pyrrolo [2,3-d]pyrimidin-7-yl) methyl (S)-2-((tert-butoxycarbonyl)amino)-2-phenylacetate]	1.65
N#CC[C@H](C1CCCC1)n1cc(-c2ncnc3c2ccn3C(=O)Cc2ccccc2Nc2c(Cl)cccc2Cl)cn1 [Ex. 75, (R)-3-cyclopentyl-3-(4-(7-(2-(2-((2,6-dichlorophenyl)amino)phenyl)acetyl)-7H-pyrrolo [2,3-d]pyrimidin-4-yl)-1H-pyrazol-1-yl) propanenitrile]	10.38
Cc1c(Cl)cccc1Nc1ccccc1C(=O)OCn1ccc2c(-c3cnn([C@H](CC#N)C4CCCC4)c3)ncnc21 [Ex. 107, (R)-(4-(1-(2-cyano-1-cyclopentylethyl)-1H-pyrazol-4-yl)-7H-pyrrolo [2,3-d]pyrimidin-7-yl) methyl 2-((3-chloro-2-methylphenyl)amino) benzoate]	0.22
COc1ccc2c(c1)c(CC(=O)OCn1ccc3c(-c4cnn([C@H](CC#N)C5CCCC5)c4)ncnc31)c(C)n2C(=O)c1ccc(Cl)cc1 [Ex. 104, (R)-2-(4-(1-(2-cyano-1-cyclopentylethyl)-1H-pyrazol-4-yl)-7H-pyrrolo [2,3-d]pyrimidin-7-yl) methyl 2-(1-(4-chlorobenzoyl)-5-methoxy-2-methyl-1H-indol-3-yl) acetate]	0.45
CNS(=O)(=O)CC1CCC(N(C)c2ncnc3c2ccn3C(=O)C(C)c2cccc(C(=O)c3ccccc3)c2)CC1 (stereo not drawn) [Ex. 38, 1-((Trans)-4-((7-(2-(3-benzoylphenyl)propanoyl)-7H-pyrrolo [2,3-d]pyrimidin-4-yl) (methyl)amino)cyclohexyl)-N-methyl methanesulfonamide]	18.42
